Assay results from US20260184663A1, “INDENE COMPOUNDS, PHARMACEUTICAL COMPOSITIONS THEREOF, AND THEIR THERAPEUTIC APPLICATIONS” (NucMito Pharmaceuticals co. Ltd., priority 2022, published 2026).

Tests used:
Format in all cases: cell-based
[1] = system: A431 (epidermoid carcinoma); assay: Antiproliferative activity (CCK-8 cell viability), A431; conditions: Homo sapiens, 72 h, read-out: Antiproliferative activity in cancerous cells, A431 (inhibition of cell growth); for inhibition at 3.3 µM: A-431, Compound concentration: 3.3 μM; for inhibition at 10 µM: A-431, Compound concentration: 10 μM; for inhibition at 30 µM: A-431, Compound concentration: 30 μM
Summary of the method: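 Cell viability of compound-treated A431 cells was measured with a Cell Counting Kit-8. Each well received 10 μL of CCK-8 after 72 h of compound exposure, followed by 4 h incubation at 37° C. and a 450 nm plate-reader measurement. Percent viability was calculated relative to DMSO controls across replicates.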

HepG2 (liver cancer) = assay: Antiproliferative activity (CCK-8 cell viability), HepG2; conditions: Homo sapiens, 72 h, read-out: Antiproliferative activity in cancerous cells, HepG2 (inhibition of cell growth); for inhibition at 3.3 µM: Compound concentration: 3.3 μM; for inhibition at 10 µM: Compound concentration: 10 μM; for inhibition at 30 µM: Compound concentration: 30 μM
Summary of the method: (§1)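 Cells were seeded at 2,000-5,000/well (HeLa in MEM, HepG2 and SW480 in DMEM, A549 in F-12K, all with 10% FBS) and treated with compound at 3.3, 10 or 30 μM for 72 h at 37° C. CCK-8 was added for 4 h, absorbance was read at 450 nm, and viability was expressed relative to DMSO-treated wells.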

SW480 (colon cancer) = assay: Antiproliferative activity (CCK-8 cell viability), SW480; conditions: Homo sapiens, 72 h, read-out: Antiproliferative activity in cancerous cells, SW480 (inhibition of cell growth); for inhibition at 3.3 µM: Compound concentration: 3.3 μM; for inhibition at 10 µM: Compound concentration: 10 μM; for inhibition at 30 µM: Compound concentration: 30 μM
Summary of the method: as §1

[2] = system: B16F10 (malignant melanoma); assay: Antiproliferative activity (CCK-8 cell viability), B16F10; conditions: Mus musculus, 72 h, read-out: Antiproliferative activity in cancerous cells, B16F10 (inhibition of cell growth); for inhibition at 3.3 µM: B16-F10, Compound concentration: 3.3 μM; for inhibition at 10 µM: B16-F10, Compound concentration: 10 μM; for inhibition at 30 µM: B16-F10, Compound concentration: 30 μM
Summary of the method: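 Attached B16F10 cells in 96-well plates were incubated with compound at 37° C for 72 h, followed by 10 μL CCK-8 reagent per well and a further 4 h incubation. A multi-well plate reader measured absorbance at 450 nm. Percent viability across replicates was calculated against DMSO vehicle-treated cells.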

[3] = system: MDA-MB-231 (breast cancer); assay: Antiproliferative activity (CCK-8 cell viability), MDA-MB-231; conditions: Homo sapiens, 72 h, read-out: Antiproliferative activity in cancerous cells, MDA-MB-231 (inhibition of cell growth); for inhibition at 3.3 µM: Compound concentration: 3.3 μM; for inhibition at 10 µM: Compound concentration: 10 μM; for inhibition at 30 µM: Compound concentration: 30 μM
Summary of the method: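 In this CCK-8 viability assay, MDA-MB-231 cells maintained in Dulbecco's modified Eagle's medium containing 10% fetal bovine serum were placed in 96-well plates (2,000-5,000 cells/well) and treated with compound for 72 h at 37° C. A 4 h incubation with 10 μL CCK-8 followed, plates were read at 450 nm, and viability was expressed against DMSO vehicle wells across replicates.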

HeLa (cervical cancer) = assay: Antiproliferative activity (CCK-8 cell viability), HeLa; conditions: Homo sapiens, 72 h, read-out: Antiproliferative activity in cancerous cells, HELA (inhibition of cell growth); for inhibition at 3.3 µM: Compound concentration: 3.3 μM; for inhibition at 10 µM: Compound concentration: 10 μM; for inhibition at 30 µM: Compound concentration: 30 μM
Summary of the method: as §1

[4] = system: A549 (lung adenocarcinoma); assay: Antiproliferative activity (CCK-8 cell viability), A549; conditions: Homo sapiens, 72 h, read-out: Antiproliferative activity in cancerous cells, A549 (inhibition of cell growth); for inhibition at 3.3 µM: Compound concentration: 3.3 μM; for inhibition at 10 µM: Compound concentration: 10 μM; for inhibition at 30 µM: Compound concentration: 30 μM
Summary of the method: as §1

Compound | inhibition at 3.3 µM [1] [%] | inhibition at 10 µM [1] [%] | inhibition at 30 µM [1] [%] | inhibition at 3.3 µM (HepG2 (liver cancer)) [%] | inhibition at 10 µM (HepG2 (liver cancer)) [%] | inhibition at 30 µM (HepG2 (liver cancer)) [%] | inhibition at 3.3 µM (SW480 (colon cancer)) [%] | inhibition at 10 µM (SW480 (colon cancer)) [%] | inhibition at 30 µM (SW480 (colon cancer)) [%] | inhibition at 3.3 µM [2] [%] | inhibition at 10 µM [2] [%] | inhibition at 30 µM [2] [%] | inhibition at 3.3 µM [3] [%] | inhibition at 10 µM [3] [%] | inhibition at 30 µM [3] [%] | inhibition at 3.3 µM (HeLa (cervical cancer)) [%] | inhibition at 10 µM (HeLa (cervical cancer)) [%] | inhibition at 30 µM (HeLa (cervical cancer)) [%] | inhibition at 3.3 µM [4] [%] | inhibition at 10 µM [4] [%] | also measured
CC1=C(CC(=O)O)c2cc(F)ccc2/C1=C\c1ccc(CO)cc1 [D11, (Z)-2-(5-Fluoro-1-(4-(hydroxymethyl)benzylidene)-2-methyl-1H-inden-3-yl)acetic acid] | < 30 | ≥ 50 | ≥ 50 | < 30 | < 30 | < 30 | < 30 | ≥ 50 | ≥ 50 | < 30 | < 30 | < 30 | ≥ 50 | ≥ 50 | ≥ 50 | < 30 | < 30 | ≥ 50 | < 30 | ≥ 50 | inhibition at 30 µM [4]: ≥ 50%
COc1ccc(/C=C2/C(C)=C(CC(=O)O)c3cc(F)ccc32)cc1Cl [D12, (Z)-2-(1-(3-Chloro-4-methoxybenzylidene)-5-fluoro-2-methyl-1H-inden-3-yl)acetic acid] | ≥ 50 | ≥ 50 | ≥ 50 | < 30 | 30 to 50 | ≥ 50 | < 30 | < 30 | ≥ 50 | < 30 | 30 to 50 | ≥ 50 | < 30 | 30 to 50 | ≥ 50 | < 30 | 30 to 50 | ≥ 50 | < 30 | < 30 | inhibition at 30 µM [4]: ≥ 50%
CC1=C(CC(=O)O)c2cc(F)ccc2/C1=C\c1ccc(-c2ccc(Cl)cc2)cc1 [D13, (Z)-2-(1-((4′-Chloro-[1,1′-biphenyl]-4-yl)methylene)-5-fluoro-2-methyl-1H-inden-3-yl)acetic acid] | < 30 | 30 to 50 | 30 to 50 | < 30 | < 30 | < 30 | 30 to 50 | 30 to 50 | 30 to 50 | ≥ 50 | ≥ 50 | ≥ 50 | < 30 | 30 to 50 | ≥ 50 | < 30 | ≥ 50 | ≥ 50 | < 30 | < 30 | inhibition at 30 µM [4]: 30 to 50%
CC1=C(CC(=O)O)c2cccc(F)c2/C1=C/c1cccc(COc2ccccc2)c1 [E8, (E)-2-(7-Fluoro-2-methyl-1-(3-(phenoxymethyl)benzylidene)-1H-inden-3-yl)-acetic acid] | ≥ 50 | ≥ 50 | ≥ 50 | 30 to 50 | ≥ 50 | ≥ 50 | 30 to 50 | ≥ 50 | ≥ 50 | < 30 | 30 to 50 | ≥ 50 | ≥ 50 | ≥ 50 | ≥ 50 | 30 to 50 | ≥ 50 | ≥ 50 | < 30 | ≥ 50 | inhibition at 30 µM [4]: ≥ 50%
CC1=C(CC(=O)O)c2cc(F)ccc2/C1=C/c1cccc(COc2ccc(F)c(F)c2)c1 [E9, 2-[(1E)-1-({3-[(3,4-Difluorophenoxy)methyl]phenyl}methylidene)-5-fluoro-2-methyl-1H-inden-3-yl]acetic acid] | < 30 | ≥ 50 | ≥ 50 | 30 to 50 | ≥ 50 | ≥ 50 | ≥ 50 | ≥ 50 | ≥ 50 | 30 to 50 | ≥ 50 | ≥ 50 | ≥ 50 | ≥ 50 | ≥ 50 | < 30 | 30 to 50 | ≥ 50 | 30 to 50 | 30 to 50 | inhibition at 30 µM [4]: ≥ 50%
CC1=C(CC(=O)O)c2cc(F)ccc2/C1=C/c1ccc(Oc2ccc(F)cc2F)cc1 [E17, (E)-2-(1-(4-(2,4-Difluorophenoxy)benzylidene)-5-fluoro-2-methyl-1H-inden-3-yl)acetic acid] | < 30 | ≥ 50 | ≥ 50 | ≥ 50 | ≥ 50 | ≥ 50 | < 30 | ≥ 50 | ≥ 50 | ≥ 50 | ≥ 50 | ≥ 50 | 30 to 50 | ≥ 50 | ≥ 50 | 30 to 50 | ≥ 50 | ≥ 50 | < 30 | ≥ 50 | inhibition at 30 µM [4]: ≥ 50%
CC1=C(CC(=O)O)c2cc(I)ccc2/C1=C/c1ccc(COCc2ccc(F)cc2)cc1 [E18, (E)-2-(1-(4-(((4-Fluorobenzyl)oxy)methyl)benzylidene)-5-iodo-2-methyl-1H-inden-3-yl)acetic acid] | ≥ 50 | ≥ 50 | ≥ 50 | < 30 | ≥ 50 | ≥ 50 | < 30 | ≥ 50 | ≥ 50 | 30 to 50 | ≥ 50 | ≥ 50 | < 30 | ≥ 50 | ≥ 50 | ≥ 50 | ≥ 50 | ≥ 50 | < 30 | ≥ 50 | inhibition at 30 µM [4]: ≥ 50%
